Laboratory results published in ChEMBL document CHEMBL5344426, “Imidazolone as an Amide Bioisostere in the Development of β-1,3-N-Acetylglucosaminyltransferase 2 (B3GNT2) Inhibitors” (J Med Chem, 2023).
Values after ≈ are worked out from the molar mass of the structure shown.

Experiments:
Jurkat = assay: Antiproliferative activity against human Jurkat cells assessed as inhibition of cell growth incubated for 3 days by SYTOX blue staining based flow cytometry analysis; assay type: functional; conditions: 72 h
[1] = biological target: T1, N-acetyllactosaminide beta-1,3-N-acetylglucosaminyltransferase 2 (Homo sapiens, UniProt Q9NY97); assay: Inhibition of B3GNT2 (unknown origin) using N-acetyl-lactosamine and UDP-GlcNAc as substrate incubated for 1.5 to 2 hrs by UDP-Glo based analysis; conditions: read-out: IC50
T1 sequence (Q9NY97 whole entry): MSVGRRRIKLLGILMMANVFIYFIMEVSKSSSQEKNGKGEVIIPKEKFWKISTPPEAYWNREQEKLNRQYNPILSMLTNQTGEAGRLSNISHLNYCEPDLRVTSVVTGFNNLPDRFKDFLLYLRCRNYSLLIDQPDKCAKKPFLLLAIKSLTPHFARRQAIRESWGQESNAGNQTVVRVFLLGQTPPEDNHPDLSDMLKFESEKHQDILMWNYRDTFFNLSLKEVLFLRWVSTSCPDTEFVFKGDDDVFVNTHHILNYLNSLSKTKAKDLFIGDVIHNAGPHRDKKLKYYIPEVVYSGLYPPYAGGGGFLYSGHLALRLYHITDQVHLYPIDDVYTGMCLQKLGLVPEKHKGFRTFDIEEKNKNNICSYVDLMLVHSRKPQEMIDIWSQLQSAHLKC

[2] = biological target: N-acetyllactosaminide beta-1,3-N-acetylglucosaminyltransferase 4 (Homo sapiens, UniProt Q9C0J1); assay: Inhibition of B3GNT4 (unknown origin) using Beta-lactose and UDP-GlcNAc as substrate incubated for 1.5 to 2 hrs by UDP-Glo based analysis
Sequence of N-acetyllactosaminide beta-1,3-N-acetylglucosaminyltransferase 4 (Q9C0J1 whole entry): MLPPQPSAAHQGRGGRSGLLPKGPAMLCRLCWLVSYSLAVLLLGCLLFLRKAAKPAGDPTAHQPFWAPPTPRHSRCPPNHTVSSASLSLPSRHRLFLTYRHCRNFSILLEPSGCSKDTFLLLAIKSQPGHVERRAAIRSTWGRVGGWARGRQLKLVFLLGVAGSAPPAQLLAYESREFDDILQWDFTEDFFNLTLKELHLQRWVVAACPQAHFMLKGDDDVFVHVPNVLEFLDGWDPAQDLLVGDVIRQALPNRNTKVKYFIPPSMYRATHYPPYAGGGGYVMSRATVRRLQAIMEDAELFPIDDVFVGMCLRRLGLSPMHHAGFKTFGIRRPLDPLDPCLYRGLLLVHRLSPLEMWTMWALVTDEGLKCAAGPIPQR

[3] = Permeability of compound across apical to basolateral in MDCK-II cells incubated for 2 hrs by LC-MS/MS analysis; assay type: ADME, cell-based, Canis lupus familiaris; conditions: dog, read-out: permeability
[4] = Solubility of compound in FeSSIF incubated for 48 to 72 hrs by LC-MS analysis; assay type: physicochemical; conditions: time 48-72 hrs
[5] = Microsomal stability in human liver microsome assessed as intrinsic clearance at 1 uM incubated for 20 mins in presence of NADPH by LC-MS/MS analysis; assay type: ADME; conditions: liver microsomes, read-out: CLH
[6] = Volume of distribution at steady state in mouse at 5 mg/kg, po; assay type: ADME, organism-based; conditions: in vivo
[7] = Half life in mouse at 5 mg/kg, po; assay type: ADME, organism-based; conditions: in vivo; for t1/2: po, 5 mg/kg
[8] = Microsomal stability in rat liver microsome assessed as intrinsic clearance at 1 uM incubated for 20 mins in presence of NADPH by LC-MS/MS analysis; assay type: ADME; conditions: liver microsomes, read-out: CLH
[9] = Oral bioavailability in mouse at 5 mg/kg; assay type: ADME, organism-based; conditions: in vivo
[10] = Solubility of compound in HCL incubated for 48 to 72 hrs by LC-MS analysis; assay type: physicochemical; conditions: time 48-72 hrs
[11] = Solubility of compound in PBS incubated for 48 to 72 hrs by LC-MS analysis; assay type: physicochemical; conditions: time 48-72 hrs
[12] = Clearance in mouse at 5 mg/kg, po; assay type: ADME, organism-based; conditions: in vivo; for CL: po, 5 mg/kg
[13] = Microsomal stability in mouse liver microsome assessed as intrinsic clearance at 1 uM incubated for 20 mins in presence of NADPH by LC-MS/MS analysis; assay type: ADME; conditions: liver microsomes, read-out: CLH

C[C@@H](n1c(=O)[nH]c2ccc(C3=N[C@@](c4cccnc4)(c4nnc[nH]4)NC3=O)cc21)C(C)(C)C
IC50 (Jurkat): > 85 µM
IC50 [1]: 0.026 µM

Cc1ncc([C@]2(C)NC(c3ccc4[nH]c(=O)n([C@H](C)C(C)(C)C)c4c3)=NC2=O)cn1
IC50 (Jurkat): 4.2 µM
IC50 [2]: > 250 µM
IC50 [1]: 0.024 µM

Cc1ccc([C@]2(C)NC(c3ccc4[nH]c(=O)n([C@H](C)C(C)(C)C)c4c3)=NC2=O)cn1
IC50 (Jurkat): 5.1 µM
IC50 [1]: 0.029 µM

C[C@@H](n1c(=O)[nH]c2ccc(C(=O)N3CCOCC3)cc21)C(C)(C)C
IC50 [2]: > 250 µM
IC50 [1]: 26.6 µM

C[C@H](NC(=O)c1ccc2[nH]c(=O)n([C@H](C)C(C)(C)C)c2c1)c1cnc(C(F)(F)F)nc1
Papp A→B at 2 h [3]: 21 ×10⁻⁶ cm/s
IC50 (Jurkat): 17.2 µM
solubility [4]: 298 µM (≈ 130 µg/mL)
microsomal CLint at 1 µM [5]: 14 µL/min/mg
Vdss [6]: 1.8 L/kg
half-life [7]: 1.9 h
microsomal CLint at 1 µM [8]: 42 µL/min/mg
bioavailability [9]: 28%
solubility [10]: 180 µM (≈ 78.4 µg/mL)
solubility [11]: 155 µM (≈ 67.5 µg/mL)
CL/F [12]: 13.3 mL/min/kg
IC50 [2]: > 250 µM
microsomal CLint at 1 µM [13]: 61 µL/min/mg
IC50 [1]: 0.07 µM

C[C@@H](n1c(=O)[nH]c2ccc(C3=N[C@]4(CCc5cc(Br)ccc54)NC3=O)cc21)C(C)(C)C
IC50 (Jurkat): 6.4 µM
IC50 [1]: 0.053 µM

C[C@@H](n1c(=O)[nH]c2ccc(C(=O)Nc3ccccc3)cc21)C(C)(C)C
IC50 (Jurkat): 38.8 µM
IC50 [2]: > 250 µM
IC50 [1]: 0.82 µM

C[C@H](NC(=O)c1ccc2[nH]c(=O)n([C@H](C)C(C)(C)C)c2c1)c1ccc(Br)cn1
IC50 (Jurkat): 12.5 µM
IC50 [2]: 169 µM
IC50 [1]: 0.1 µM

C[C@@H](n1c(=O)[nH]c2ccc(C(=O)NCc3ccc(Cl)cc3)cc21)C(C)(C)C
IC50 (Jurkat): 67.8 µM
IC50 [2]: > 250 µM
IC50 [1]: 0.61 µM

C[C@H](NC(=O)c1ccc2[nH]c(=O)n([C@H](C)C(C)(C)C)c2c1)c1ccc(C(F)(F)F)cn1
IC50 (Jurkat): 66.1 µM
IC50 [2]: > 250 µM
IC50 [1]: 0.23 µM

C[C@H](NC(=O)c1ccc2[nH]c(=O)n([C@H](C)C(C)(C)C)c2c1)c1ccc(Cl)cn1
IC50 (Jurkat): 32 µM
IC50 [2]: > 250 µM
IC50 [1]: 0.23 µM

Cc1ccc([C@]2(C)NC(c3ccc4[nH]c(=O)n([C@H](C)C(C)(C)C)c4c3)=NC2=O)nc1
IC50 (Jurkat): 13.8 µM
IC50 [1]: 0.096 µM

C[C@@H](n1c(=O)[nH]c2ccc(C3=N[C@](c4ccc(Cl)nc4)(c4ccccn4)NC3=O)cc21)C(C)(C)C
IC50 (Jurkat): 5.5 µM
IC50 [1]: 0.039 µM

C[C@@H](n1c(=O)[nH]c2ccc(C3=C[C@@](C)(c4cnc(C(F)(F)F)nc4)OC3=O)cc21)C(C)(C)C
IC50 (Jurkat): 5.6 µM
IC50 [1]: 0.028 µM

C[C@@H](n1c(=O)[nH]c2ccc(C3=NC(=O)[C@](C)(c4cnc(C(F)(F)F)nc4)N3)cc21)C(C)(C)C
Papp A→B at 2 h [3]: 17 ×10⁻⁶ cm/s
IC50 (Jurkat): 1.1 µM
solubility [4]: 485 µM (≈ 223 µg/mL)
microsomal CLint at 1 µM [5]: 14 µL/min/mg
Vdss [6]: 2.6 L/kg
t1/2 [7]: 1.4 h
microsomal CLint at 1 µM [8]: 15 µL/min/mg
bioavailability [9]: 54%
solubility [10]: 329 µM (≈ 151 µg/mL)
solubility [11]: 154 µM (≈ 70.9 µg/mL)
CL [12]: 5 mL/min/kg
IC50 [2]: > 250 µM
microsomal CLint at 1 µM [13]: 15 µL/min/mg
IC50 [1]: 0.009 µM

C[C@@H](n1c(=O)[nH]c2ccc(C3=NC(=O)[C@@](C)(c4ccc(Cl)cn4)N3)cc21)C(C)(C)C
IC50 [1]: 0.51 µM

C[C@@H](n1c(=O)[nH]c2ccc(C3=NC(=O)[C@](C)(c4ccc(C(F)(F)F)nc4)N3)cc21)C(C)(C)C
Papp A→B at 2 h [3]: 15 ×10⁻⁶ cm/s
IC50 (Jurkat): 2.3 µM
solubility [4]: 500 µM (≈ 230 µg/mL)
microsomal CLint at 1 µM [5]: 34 µL/min/mg
Vdss [6]: 3.4 L/kg
t1/2 [7]: 1.5 h
microsomal CLint at 1 µM [8]: 14 µL/min/mg
bioavailability [9]: 66%
solubility [10]: 311 µM (≈ 143 µg/mL)
solubility [11]: 66 µM (≈ 30.3 µg/mL)
CL [12]: 5 mL/min/kg
microsomal CLint at 1 µM [13]: 14 µL/min/mg
IC50 [1]: 0.008 µM

C[C@@H](n1c(=O)[nH]c2ccc(C3=N[C@@](C)(c4cnc(C(F)(F)F)nc4)NC3=O)cc21)C(C)(C)C
IC50 (Jurkat): 3.8 µM
IC50 [1]: 0.024 µM

C[C@@H](n1c(=O)[nH]c2ccc(C3=N[C@@](Cc4ccccc4)(c4cnc(C(F)(F)F)nc4)NC3=O)cc21)C(C)(C)C
IC50 (Jurkat): 4 µM
IC50 [1]: 0.013 µM

C[C@H](NC(=O)c1ccc2[nH]c(=O)n([C@H](C)C(C)(C)C)c2c1)c1cnc(Cl)nc1
IC50 (Jurkat): 15.3 µM
IC50 [2]: > 250 µM
IC50 [1]: 0.076 µM

Cc1ncc([C@H](C)NC(=O)c2ccc3[nH]c(=O)n([C@H](C)C(C)(C)C)c3c2)cn1
IC50 (Jurkat): 22.4 µM
IC50 [2]: > 250 µM
IC50 [1]: 0.12 µM
